According to US9149038B2, “4-amino-6-(heterocyclic)picolinates and 6-amino-2-(heterocyclic)pyrimidine-4-carboxylates and their use as herbicides” (Dow AgroSciences LLC, priority 2013, dated 2015):
Where two headings read alike, the source gives them in different places.

Experiments:
[1] = test system: Key Grass and Sedge Weeds as well as Grass Crops; assay: Post-Emergent Test II: postemergent herbicidal activity, visual rating after 14 d (Table 8); assay type: in vivo; conditions: post-emergence, 336 h; for pest or weed control at 35 g/ha: 35 g ai/ha; for pest or weed control at 70 g/ha: 70 g ai/ha; for pest or weed control at 140 g/ha: 140 g ai/ha
Outline: (§1)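 Visual scoring at 14 d, 0 (no injury) to 100 (complete kill), relative to untreated plants. Postemergent overhead track-sprayer application, 187 L/ha, at a top rate plus serial ½×–1/16× rates, to plants grown 7–21 d at about 23–29° C day under a 15 h photoperiod, then subirrigated.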

[2] = test system: Key Broadleaf Weed and Crop Species; assay: Post-Emergent Test II: postemergent herbicidal activity, visual rating after 14 d (Table 7); assay type: in vivo; conditions: post-emergence, 336 h; for pest or weed control at 35 g/ha: 35 g ai/ha; for pest or weed control at 70 g/ha: 70 g ai/ha; for pest or weed control at 140 g/ha: 140 g ai/ha
Outline: as §1

[3] = barnyardgrass (Echinochloa crus-galli), read-out: Visual Growth Reduction (%) 14 Days After Application, ECHCG
[4] = giant foxtail (Setaria faberi), read-out: Visual Growth Reduction (%) 14 Days After Application, SETFA
[5] = maize, corn (Zea mays), read-out: Visual Growth Reduction (%) 14 Days After Application, ZEAMX
[6] = rice (Oryza sativa), read-out: Visual Growth Reduction (%) 14 Days After Application, ORYSA
[7] = wheat, spring (Triticum aestivum), read-out: Visual Growth Reduction (%) 14 Days After Application, TRZAS
[8] = yellow nutsedge (Cyperus esculentus), read-out: Visual Growth Reduction (%) 14 Days After Application, CYPES
[9] = ABUTH: velvetleaf (Abutilon theophrasti), read-out: Visual Growth Reduction (%) 14 Days After Application ABUTH
[10] = AMARE: redroot pigweed (Amaranthus retroflexus), read-out: Visual Growth Reduction (%) 14 Days After Application AMARE
[11] = BRSNN: oilseed rape, canola (Brassica napus), read-out: Visual Growth Reduction (%) 14 Days After Application BRSNN
[12] = CHEAL: lambsquarters (Chenopodium album), read-out: Visual Growth Reduction (%) 14 Days After Application CHEAL
[13] = EPHHL: wild poinsettia (Euphorbia heterophylla), read-out: Visual Growth Reduction (%) 14 Days After Application EPHHL
[14] = HELAN: sunflower (Helianthus annuus), read-out: Visual Growth Reduction (%) 14 Days After Application HELAN

`COC(=O)c1nc(-c2c(F)ccc3c2OC(F)(F)O3)cc(N)c1Cl` [Compound 90, Methyl 4-amino-3-chloro-6-(2,2,5-trifluorobenzo[d][1,3]dioxol-4-yl)picolinate] was tested, and the pest or weed control at 35 g/ha [1, 3] was 0 to 29%, the pest or weed control at 70 g/ha [1, 3] was 0 to 29% and the pest or weed control at 140 g/ha [1, 3] was 0 to 29%. The pest or weed control at 35 g/ha [1, 4] was 0 to 29%, the pest or weed control at 70 g/ha [1, 4] was 0 to 29% and the pest or weed control at 140 g/ha [1, 4] was 0 to 29%. For the same compound, the pest or weed control at 35 g/ha [1, 5] was 0 to 29%, the pest or weed control at 70 g/ha [1, 5] was 0 to 29% and the pest or weed control at 140 g/ha [1, 5] was 0 to 29%. For the same compound, the pest or weed control at 35 g/ha [1, 6] was 0 to 29%, the pest or weed control at 70 g/ha [1, 6] was 0 to 29% and the pest or weed control at 140 g/ha [1, 6] was 0 to 29%. For the same compound, the pest or weed control at 35 g/ha [1, 7] was 0 to 29%, the pest or weed control at 70 g/ha [1, 7] was 0 to 29% and the pest or weed control at 140 g/ha [1, 7] was 0 to 29%. It also gave a pest or weed control at 35 g/ha [1, 8] of 0 to 29%, a pest or weed control at 70 g/ha [1, 8] of 0 to 29% and a pest or weed control at 140 g/ha [1, 8] of 0 to 29%. For the same compound, the pest or weed control at 35 g/ha [2, 9] was 60 to 74%, the pest or weed control at 70 g/ha [2, 9] was 75 to 84% and the pest or weed control at 140 g/ha [2, 9] was 85 to 94%. It also gave a pest or weed control at 35 g/ha [2, 10] of 95 to 100%, a pest or weed control at 70 g/ha [2, 10] of 95 to 100% and a pest or weed control at 140 g/ha [2, 10] of 95 to 100%. The pest or weed control at 35 g/ha [2, 11] was 0 to 29%, the pest or weed control at 70 g/ha [2, 11] was 0 to 29% and the pest or weed control at 140 g/ha [2, 11] was 60 to 74%. The pest or weed control at 35 g/ha [2, 12] was 85 to 94%, the pest or weed control at 70 g/ha [2, 12] was 95 to 100% and the pest or weed control at 140 g/ha [2, 12] was 95 to 100%. It also gave a pest or weed control at 35 g/ha [2, 13] of 0 to 29%, a pest or weed control at 70 g/ha [2, 13] of 0 to 29% and a pest or weed control at 140 g/ha [2, 13] of 0 to 29%. For the same compound, the pest or weed control at 35 g/ha [2, 14] was 0 to 29%, the pest or weed control at 70 g/ha [2, 14] was 0 to 29% and the pest or weed control at 140 g/ha [2, 14] was 0 to 29%.
